Laboratory results: EP0295604A1, “(E)-2-(p-Fluorophenethyl)-3-fluoroallylamine” (MERRELL DOW PHARMACEUTICALS INC., priority 1987, dated 1988)

Key:
[1] = biological target: T1, rat brain mitochondrial MAO-A (Rattus norvegicus, UniProt P21396); assay: In vitro inhibition of rat brain mitochondrial MAO-A; type: biochemical
T1 construct: from tissue; host or cells: rat brain mitochondria
T1 sequence (P21396 1-526): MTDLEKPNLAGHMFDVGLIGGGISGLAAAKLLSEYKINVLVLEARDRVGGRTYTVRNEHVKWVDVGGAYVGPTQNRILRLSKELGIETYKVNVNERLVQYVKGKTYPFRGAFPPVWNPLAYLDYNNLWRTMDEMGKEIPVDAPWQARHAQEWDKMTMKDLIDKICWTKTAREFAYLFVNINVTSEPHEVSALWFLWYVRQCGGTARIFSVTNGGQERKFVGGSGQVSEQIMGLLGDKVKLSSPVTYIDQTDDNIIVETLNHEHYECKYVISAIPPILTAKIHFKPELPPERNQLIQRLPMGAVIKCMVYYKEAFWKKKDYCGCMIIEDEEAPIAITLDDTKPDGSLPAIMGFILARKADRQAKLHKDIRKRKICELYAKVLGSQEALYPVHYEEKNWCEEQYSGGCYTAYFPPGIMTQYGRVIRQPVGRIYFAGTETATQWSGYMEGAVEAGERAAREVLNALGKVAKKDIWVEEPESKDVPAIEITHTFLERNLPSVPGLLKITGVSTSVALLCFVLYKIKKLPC
Text: In vivo, the compound is active orally, is potent and with a selectivity ratio of 44 remains selective for MAO-B.

[2] = biological target: T2, rat brain mitochondrial MAO-B (Rattus norvegicus, UniProt P19643); assay: In vitro inhibition of rat brain mitochondrial MAO-B; type: biochemical; settings: MAO-A vs MAO-B IC50
T2 sequence (P19643 1-520): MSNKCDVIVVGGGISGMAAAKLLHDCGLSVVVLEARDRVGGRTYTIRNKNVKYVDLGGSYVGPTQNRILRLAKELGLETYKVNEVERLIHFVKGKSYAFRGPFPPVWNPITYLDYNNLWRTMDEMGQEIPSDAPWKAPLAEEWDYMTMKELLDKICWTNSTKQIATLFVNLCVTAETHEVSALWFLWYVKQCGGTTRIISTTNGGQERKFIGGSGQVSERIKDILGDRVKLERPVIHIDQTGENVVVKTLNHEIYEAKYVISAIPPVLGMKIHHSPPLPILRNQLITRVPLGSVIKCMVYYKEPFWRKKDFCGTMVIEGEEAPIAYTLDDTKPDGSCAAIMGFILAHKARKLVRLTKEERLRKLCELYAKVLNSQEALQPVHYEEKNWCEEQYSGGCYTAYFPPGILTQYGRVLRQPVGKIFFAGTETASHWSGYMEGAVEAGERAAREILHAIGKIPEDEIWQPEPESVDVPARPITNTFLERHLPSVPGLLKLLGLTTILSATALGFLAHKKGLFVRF

MAO-A = assay: Chronic (14 day) oral administration, rat tissue MAO-A activity; type: in vivo
Text: Following repeated daily administration for 14 days, (E)-2-p-fluorophenethyl)-3-fluoroallylamine remained selective for the MAO-B enzyme. From the irreversible inhibition, mode of action and the long half-life of the enzyme, a lower daily dose is needed to inhibit the enzyme.

MAO-B = assay: Chronic (14 day) oral administration, rat tissue MAO-B activity; type: in vivo
Striatal dopamine = assay: Prevention of MPTP neurotoxicity (striatal dopamine); type: in vivo; settings: mice
Text: MPTP given parenterally to mice depletes striatal dopamine. This effect can be prevented by MAO-B, but not by MAO-A inhibitor.

[3] = test system: tachycardia response to tyramine; assay: Potentiation of the cardiovascular effects of tyramine (tachycardia response); type: in vivo; settings: for Tyramine potentiation ratio i.d.: intraduodenal tyramine 0.3-50 mg/kg; for Tyramine potentiation ratio i.v.: intravenous tyramine 1.25-80 µg/kg
Text: Non-selective and MAO-A selective inhibitors are known to produce dangerous cardiovascular interactions with tyramine containing foods; the so-called "cheese reaction". L-Deprenyl is devoid of this effect.

Row | SMILES | IC50 [1] [nM] | selectivity ratio in favor of MAO-B inhibition [2] | ED50 MAO-A (MAO-A; Brain) [mg/kg p.o.] | ED50 MAO-A (MAO-A; Duodenum) | ED50 MAO-A (MAO-A; Heart) [mg/kg p.o.] | ED50 MAO-A (MAO-A; Liver) [mg/kg p.o.] | ED50 MAO-B (MAO-B; Brain) [mg/kg p.o.] | ED50 MAO-B (MAO-B; Duodenum) [mg/kg p.o.] | ED50 MAO-B (MAO-B; Heart) [mg/kg p.o.] | ED50 MAO-B (MAO-B; Liver) [mg/kg p.o.] | Striatal dopamine (Striatal dopamine; MPTP plus compound) | Striatal dopamine (Striatal dopamine; compound alone, 1.25 mg/kg i.p.) | Tyramine potentiation ratio i.d. ([3]; 1.8 mg/kg p.o.) | Tyramine potentiation ratio i.v. ([3]; 1.8 mg/kg p.o.) | Tyramine potentiation ratio i.d. ([3]; 9 mg/kg p.o.) | Tyramine potentiation ratio i.v. ([3]; 9 mg/kg p.o.) | interactions with tyramine ([3]; given acutely at 10 and 50 times the ED50 dose for inhibition of MAO-B) | Striatal dopamine (Striatal dopamine; MPTP alone, 20 mg/kg i.p.)
1 | NC/C(=C/F)CCc1ccc(F)cc1 [(E)-2-(p-fluorophenethyl)-3-fluoroallylamine] | 680 | 190 | > 5 | >>5 mg/kg p.o. | 5 | > 5 | 0.025 | 0.25 | 0.5 | 0.01 | 16.0 ± 0.4 ug/g ± SEM | 16.6 ± 0.9 ug/g ± SEM | 1.4 | 0.8 | 1.3 | 1.8 | devoid of interactions with tyramine | 
2 | CN1CC=C(c2ccccc2)CC1 [MPTP, N-methyl-4-phenyl-1,2,3,6-tetrahydropyridine, reference compound] |  |  |  |  |  |  |  |  |  |  |  |  |  |  |  |  |  | 4.3 ± 0.4 ug/g ± SEM
